Source: patent US6737383B1, “Herbicidal oxadiazolidines” (priority 1999, dated 2004)

Experiments:
[1] = tested on: blackgrass; assay: Test B pre/postemergence blackgrass; format: in vivo, Alopecurus myosuroides
In short: (§1)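 Response is a visual 0-to-10 score relative to untreated plants, where 0 means no effect and 10 means complete control, taken twelve to sixteen days after application. Treatments went onto soil at planting and onto foliage of 1- to 4-leaf plants, using a surfactant-containing non-phytotoxic solvent.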

[2] = tested on: cocklebur; assay: Test B pre/postemergence cocklebur; format: in vivo, Xanthium strumarium
In short: as §1

[3] = tested on: giant foxtail; assay: Test B pre/postemergence giant foxtail; format: in vivo, Setaria faberii
In short: as §1

[4] = tested on: morningglory; assay: Test B pre/postemergence morningglory; format: in vivo, Ipomoea hederacea
In short: as §1

[5] = tested on: pigweed; assay: Test B pre/postemergence pigweed; format: in vivo, Amaranthus retroflexus
In short: as §1

[6] = tested on: rape; assay: Test B pre/postemergence rape; format: in vivo, Brassica napus
In short: as §1

[7] = tested on: soybean; assay: Test B pre/postemergence soybean; format: in vivo, Glycine max
In short: as §1

[8] = tested on: sugar beet; assay: Test B pre/postemergence sugar beet; format: in vivo, Beta vulgaris
In short: as §1

[9] = tested on: velvetleaf; assay: Test B pre/postemergence velvetleaf; format: in vivo, Abutilon theophrasti
In short: as §1

[10] = tested on: wheat; assay: Test B pre/postemergence wheat; format: in vivo, Triticum aestivum
In short: as §1

[11] = tested on: wild oat; assay: Test B pre/postemergence wild oat; format: in vivo, Avena fatua
In short: as §1

[12] = tested on: purple nutsedge; assay: Test B pre/postemergence purple nutsedge; format: in vivo, Cyperus rotundus
In short: as §1

[13] = tested on: rice; assay: Test B flood test rice; format: in vivo, Oryza sativa
In short: (§2)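 Read-out is a visual response score from 0 (no effect) to 10 (complete control), assigned by comparison with untreated controls. Treatment was applied at the 2-leaf stage, and plants stayed in the greenhouse for twelve to sixteen days before scoring.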

[14] = tested on: smallflower flatsedge; assay: Test B flood test smallflower flatsedge; format: in vivo, Cyperus difformis
In short: as §2

[15] = tested on: duck salad; assay: Test B flood test duck salad; format: in vivo, Heteranthera limosa
In short: as §2

[16] = tested on: bamyardgrass; assay: Test B flood test barnyardgrass; format: in vivo, Echinochloa crus-galli
In short: as §2

[17] = Postemergence, Rate 125 g/ha, scale of 0 to 10 where 0 is no effect and 10 is complete control
[18] = Preemergence, Rate 62 g/ha, scale of 0 to 10 where 0 is no effect and 10 is complete control
[19] = Preemergence, Rate 125 g/ha, 0 is no effect, 10 is complete control
[20] = Preemergence, Rate 500 g/ha, scale 0 to 10 (0 no effect, 10 complete control)
[21] = Rate 62 g/ha, Postemergence, scale of 0 to 10 where 0 is no effect and 10 is complete control
[22] = Rate 250 g/ha, Postemergence, scale 0 to 10, 0 is no effect, 10 is complete control
[23] = Rate 500 g/ha, Postemergence, scale 0 to 10
[24] = Preemergence, Rate 250 g/ha, scale 0 to 10, 0 is no effect, 10 is complete control
[25] = Postemergence (flood test species), Rate 125 g/ha, scale of 0 to 10 where 0 is no effect and 10 is complete control
[26] = Rate 62 g/ha, Postemergence section, flood test species, scale of 0 to 10 where 0 is no effect and 10 is complete control
[27] = Rate 250 g/ha, Postemergence (flood test), scale 0 to 10, 0 is no effect, 10 is complete control
[28] = Rate 500 g/ha, listed under Postemergence (flood test species), scale 0 to 10

Cc1nsc(C)c1-n1c(=O)on(C(=O)N(c2ccc(F)cc2F)C(C)C)c1=O [Compound 158]
Blackgrass plant response rating [1, 17]: 1
Blackgrass plant response rating [1, 18]: 0
Blackgrass plant response rating (0 to 10 scale) [1, 19]: 0
Blackgrass plant response rating [1, 20]: 3
Blackgrass plant response rating [1, 21]: 1
Plant response rating, Blackgrass [1, 22]: 2
Blackgrass plant response rating [1, 23]: 5
Cocklebur plant response rating [2, 17]: 0
Cocklebur plant response rating [2, 18]: 0
Cocklebur plant response rating (0 to 10 scale) [2, 19]: 0
Cocklebur plant response rating [2, 24]: 0
Cocklebur plant response rating [2, 20]: 0
Cocklebur plant response rating [2, 21]: 0
Plant response rating, Cocklebur [2, 22]: 0
Cocklebur plant response rating [2, 23]: 0
Giant foxtail plant response rating [3, 17]: 0
Giant foxtail plant response rating [3, 18]: 3
Giant foxtail plant response rating (0 to 10 scale) [3, 19]: 4
Giant foxtail plant response rating [3, 24]: 7
Giant foxtail plant response rating [3, 20]: 8
Giant foxtail plant response rating [3, 21]: 0
Plant response rating, Giant foxtail [3, 22]: 4
Giant foxtail plant response rating [3, 23]: 5
Morningglory plant response rating [4, 17]: 2
Morningglory plant response rating [4, 18]: 0
Morningglory plant response rating (0 to 10 scale) [4, 19]: 0
Morningglory plant response rating [4, 24]: 1
Morningglory plant response rating [4, 20]: 2
Morningglory plant response rating [4, 21]: 0
Plant response rating, Morningglory [4, 22]: 2
Morningglory plant response rating [4, 23]: 2
Redroot pigweed plant response rating [5, 17]: 2
Redroot pigweed plant response rating [5, 18]: 0
Redroot pigweed plant response rating (0 to 10 scale) [5, 19]: 0
Redroot pigweed plant response rating [5, 24]: 0
Redroot pigweed plant response rating [5, 20]: 2
Redroot pigweed plant response rating [5, 21]: 0
Plant response rating, Redroot pigweed [5, 22]: 2
Redroot pigweed plant response rating [5, 23]: 4
Rape plant response rating [6, 17]: 0
Rape plant response rating [6, 18]: 0
Rape plant response rating (0 to 10 scale) [6, 19]: 0
Rape plant response rating [6, 24]: 0
Rape plant response rating [6, 20]: 0
Rape plant response rating [6, 21]: 0
Plant response rating, Rape [6, 22]: 0
Rape plant response rating [6, 23]: 0
Soybean plant response rating [7, 17]: 3
Soybean plant response rating [7, 18]: 0
Soybean plant response rating (0 to 10 scale) [7, 19]: 0
Soybean plant response rating [7, 24]: 0
Soybean plant response rating [7, 20]: 0
Soybean plant response rating [7, 21]: 3
Plant response rating, Soybean [7, 22]: 4
Soybean plant response rating [7, 23]: 5
Sugarbeets plant response rating [8, 17]: 0
Sugarbeets plant response rating [8, 18]: 0
Sugarbeets plant response rating (0 to 10 scale) [8, 19]: 0
Sugarbeets plant response rating [8, 24]: 0
Sugarbeets plant response rating [8, 20]: 0
Sugarbeets plant response rating [8, 21]: 0
Plant response rating, Sugarbeets [8, 22]: 0
Sugarbeets plant response rating [8, 23]: 0
Velvetleaf plant response rating [9, 18]: 0
Velvetleaf plant response rating (0 to 10 scale) [9, 19]: 0
Velvetleaf plant response rating [9, 24]: 0
Velvetleaf plant response rating [9, 20]: 0
Plant response rating, Velvetleaf [9, 22]: 0
Velvetleaf plant response rating [9, 23]: 0
Wheat plant response rating [10, 18]: 0
Wheat plant response rating (0 to 10 scale) [10, 19]: 0
Wheat plant response rating [10, 24]: 0
Wheat plant response rating [10, 20]: 0
Plant response rating, Wheat [10, 22]: 0
Wheat plant response rating [10, 23]: 0
Wild oats plant response rating [11, 18]: 0
Wild oats plant response rating (0 to 10 scale) [11, 19]: 0
Wild oats plant response rating [11, 24]: 0
Wild oats plant response rating [11, 20]: 2
Plant response rating, Wild oats [11, 22]: 0
Wild oats plant response rating [11, 23]: 0
Nutsedge plant response rating [12, 17]: 0
Nutsedge plant response rating [12, 18]: 0
Nutsedge plant response rating (0 to 10 scale) [12, 19]: 0
Nutsedge plant response rating [12, 24]: 0
Nutsedge plant response rating [12, 20]: 0
Nutsedge plant response rating [12, 21]: 0
Plant response rating, Nutsedge [12, 22]: 0
Nutsedge plant response rating [12, 23]: 0
Rice plant response rating [13, 25]: 0
Rice plant response rating [13, 26]: 0
Plant response rating, Rice [13, 27]: 0
Rice plant response rating [13, 28]: 0
S. Flatsedge plant response rating [14, 25]: 0
S. Flatsedge plant response rating [14, 26]: 0
Plant response rating, S. Flatsedge [14, 27]: 0
S. Flatsedge plant response rating [14, 28]: 0
Ducksalad plant response rating [15, 25]: 0
Ducksalad plant response rating [15, 26]: 0
Plant response rating, Ducksalad [15, 27]: 0
Ducksalad plant response rating [15, 28]: 0
Barnyardgrass plant response rating [16, 25]: 0
Barnyardgrass plant response rating [16, 26]: 0
Plant response rating, Barnyardgrass [16, 27]: 0
Barnyardgrass plant response rating [16, 28]: 0
